Data reported in patent publication US10106536B2, “Imidazo(4,5-B) pyridin-2-yl amides as KV7 channel activators” (Knopp Biosciences LLC, priority 2013, dated 2018).

biological target: T1, Kv7.2/7.3 (Homo sapiens, UniProt O43525+O43526); assay: Kv7.2/7.3 activation assay, QPatch planar patch-clamp, single concentration screen; format: cell-based; details: compound 3 μM; Kv7.2/Kv7.3 co-expressing HEK cells; steady-state current at end of 1 s pulse to −30 mV
T1 construct: host or cells: HEK cells, tetracycline-inducible expression
Procedure: Kv7.2/7.3 Activation Assay
The ability of compounds to potentiate K-currents in KV7.2/7.3 containing HEK cells was assessed using planar patch-clamp on the QPatch automated screening platform.
The hKV7.2/7.3 cell line was obtained from Chantest (Cleveland, Ohio 44128) cat.# CT6147. These HEK cells will express the Kv7.2/7.3 ion channels when induced.
Cell Culture: Cells were maintained in a media containing DMEM/F12; 50/50 (GIBCO cat.#11330), 10% Fetal Bovine Serum (FBS) (GIBCO cat.#26140), 100 units/mL Penicillin-Streptomycin (GIBCO cat.#15140), 0.005 mg/mL Blasticidin (INVIVOGEN cat.# ant-bl-1), 0.5 mg/mL Geneticin (GIBCO cat.#10131), 0.1 mg/mL Zeocin (GIBCO cat.# R25001). Cells used in the electrophysiology assay were maintained in a media without Blasticidin, Geneticin and Zeocin for 2 days and channel expression was induced by adding tetracycline (BIOLINE cat.# BIO-87030) at a final concentration of […]. Cells were grown in T-175 flask to ˜75% confluency. Currents were recorded 24 hours after channel induction.
Test compounds were prepared by performing serial dilutions on a Biomek NX^P (BECKMAN COULTER). Final dilutions were made in external recording solution with a final DMSO concentration of 0.1% DMSO. For single concentration screens each plate had 10 μM retigabine as a positive control and 0.1% DMSO as a negative control.
On the day of the experiment cells were washed with Hank's Balanced Salt Solution (HBBS) (GIBCO cat.#14175) and harvested with Tryple (GIBCO cat.#12604). Cells were then centrifuged at 2000 rpm for 5 minutes and resuspended in CHO-S-SFM (GIBCO cat.#12052) at ˜3×10^6 cells/mL. Cells were stirred for 30 minutes before experiments were started. External recording solution contained (in mM): NaCl (145), KCl (4), CaCl2 (2), MgCl2 (1), HEPES (10) and Glucose (10); pH was adjusted to 7.4 with NaOH and the osmolarity was adjusted to 300-305 mOsM with sucrose if necessary. Internal solution contained (in mM): KCl (125), KF (10), EGTA (5), Na2ATP (5), MgCl2 (3.2), HEPES (5); pH was adjusted to 7.2 with KOH and the osmolarity was adjusted to 298-302 mOsM with sucrose.
Potassium channel activity was measured on the QPatch HTX (Sophion Bioscience) using QPlates with 48-wells/plate. Each cell was taken as an independent experiment and only one compound was tested per well. Potassium channel activity was elicited by holding at −80 mV and stepping to −30 mV for 1 s followed by a 100 ms pulse to −120 mV.
Baseline conditions were obtained by recording 5 sweeps in the external solution only, this was repeated for three applications of the external solution. The effect of test compounds on elicited current was then assessed by recording 5 sweeps in the presence of a 3 μM or 10 μM compound solution. The steady-state current at the end of the 1 s pulse to −30 mV was measured to determine the fold increase from baseline.

| Compound | Kv7.2/7.3 Activity at 3 μM (increase in current over baseline) |
| --- | --- |
| O=C(Cc1ccc(F)cc1)Nc1nc2cc(Cl)cnc2n1C1CCC1 [Example 58, N-(6-chloro-3-cyclobutyl-3H-imidazo[4,5-b]pyridin-2-yl)-2-(4-fluorophenyl)acetamide] | − (<1.2-fold increase over baseline (−)) |
| CC(C)(C)OCCC(=O)Nc1nc2ccc(C3CC3)nc2n1CC(F)(F)F [Example 108, 3-(tert-butoxy)-N-(5-cyclopropyl-3-(2,2,2-trifluoroethyl)-3H-imidazo[4,5-b]pyridin-2-yl)propanamide] | +++ (>6-fold increase over baseline (+++)) |
| CC(C)(C)CC(=O)Nc1nc2ccc(-c3cccnc3)nc2n1C1CCC1.Cl [Example 151, N-(3-cyclobutyl-5-(pyridin-3-yl)-3H-imidazo[4,5-b]pyridin-2-yl)-3,3-dimethylbutanamide hydrochloride] | − (<1.2-fold increase over baseline (−)) |
| O=C(CCC1(C(F)(F)F)CC1)Nc1nc2ccc(Cl)nc2n1C1CCC1 [Example 223, N-(5-chloro-3-cyclobutyl-3H-imidazo[4,5-b]pyridin-2-yl)-3-(1-(trifluoromethyl)cyclopropyl)propanamide] | − (<1.2-fold increase over baseline (−)) |

same assay, conditions: compound 10 μM; Kv7.2/Kv7.3 co-expressing HEK cells; steady-state current at end of 1 s pulse to −30 mV

| Compound | Kv7.2/7.3 Activity at 10 μM (increase in current over baseline) |
| --- | --- |
| CC(C)CC(=O)Nc1nc2ccc(C(F)(F)F)nc2n1C1CCC1 [Example 42, N-(3-cyclobutyl-5-(trifluoromethyl)-3H-imidazo[4,5-b]pyridin-2-yl)-3-methylbutanamide] | +++ (>6-fold increase over baseline (+++)) |
| O=C(CC1CCCCC1)Nc1nc2ccc(C(F)(F)F)nc2n1C1CCC1 [Example 43, N-(3-cyclobutyl-5-(trifluoromethyl)-3H-imidazo[4,5-b]pyridin-2-yl)-2-cyclohexylacetamide] | +++ (>6-fold increase over baseline (+++)) |
| CC1(C)[C@H]2CC[C@@H](CC(=O)Nc3nc4ccc(C(F)(F)F)nc4n3C3CCC3)[C@@H]1C2 [Example 47, N-(3-cyclobutyl-5-(trifluoromethyl)-3H-imidazo[4,5-b]pyridin-2-yl)-2-((1S,2S,5S)-6,6-dimethylbicyclo[3.1.1]heptan-2-yl)acetamide] | +++ (>6-fold increase over baseline (+++)) |
| O=C(CCOC1CCCC1)Nc1nc2ccc(C(F)(F)F)nc2n1C1CCC1 [Example 91, N-(3-cyclobutyl-5-(trifluoromethyl)-3H-imidazo[4,5-b]pyridin-2-yl)-3-(cyclopentyloxy)propanamide] | +++ (>6-fold increase over baseline (+++)) |
| CC1(C)CCC(CC(=O)Nc2nc3ccc(C(F)(F)F)nc3n2C2CCC2)O1 (stereo not shown) [Example 96, N-(3-cyclobutyl-5-(trifluoromethyl)-3H-imidazo[4,5-b]pyridin-2-yl)-2-(5,5-dimethyltetrahydrofuran-2-yl)acetamide] | +++ (>6-fold increase over baseline (+++)) |
| CC(C)(C)CC(=O)Nc1nc2ccc(Cl)nc2n1-c1ccc(F)cc1 [Example 105, N-(5-chloro-3-(4-fluorophenyl)-3H-imidazo[4,5-b]pyridin-2-yl)-3,3-dimethylbutanamide] | +++ (>6-fold increase over baseline (+++)) |
| CC(C)Oc1ccc2nc(NC(=O)CCOC(C)(C)C)n(CC(F)(F)F)c2n1 [Example 120, 3-(tert-butoxy)-N-(5-isopropoxy-3-(2,2,2-trifluoroethyl)-3H-imidazo[4,5-b]pyridin-2-yl)propanamide] | +++ (>6-fold increase over baseline (+++)) |
| O=C(CCC1CCOC1)Nc1nc2ccc(C(F)(F)F)nc2n1C1CCC1 (stereo not shown) [Example 124, N-(3-cyclobutyl-5-(trifluoromethyl)-3H-imidazo[4,5-b]pyridin-2-yl)-3-(tetrahydrofuran-3-yl)propanamide] | +++ (>6-fold increase over baseline (+++)) |
| Cc1ccc2nc(NC(=O)CCOC(C)(C)C)n(CC(F)(F)F)c2n1 [Example 132, 3-(tert-butoxy)-N-(5-methyl-3-(2,2,2-trifluoroethyl)-3H-imidazo[4,5-b]pyridin-2-yl)propanamide] | +++ (>6-fold increase over baseline (+++)) |
